Reference: PubChem BioAssay AID624108 (Broad Institute, 2012)
Calls of active or inactive are those of the source. How the calls were made is not given here.

Molecular target: Glycogen synthase kinase-3 beta (Homo sapiens) (UniProt P49841)
Test: binding affinity to recombinant GSK3beta – biophysical, surface plasmon resonance, microfluidics, dry powder samples, dose response (AID 624108)

Glycogen synthase kinase-3 beta (Homo sapiens), sequence (P49841 whole entry, looked up): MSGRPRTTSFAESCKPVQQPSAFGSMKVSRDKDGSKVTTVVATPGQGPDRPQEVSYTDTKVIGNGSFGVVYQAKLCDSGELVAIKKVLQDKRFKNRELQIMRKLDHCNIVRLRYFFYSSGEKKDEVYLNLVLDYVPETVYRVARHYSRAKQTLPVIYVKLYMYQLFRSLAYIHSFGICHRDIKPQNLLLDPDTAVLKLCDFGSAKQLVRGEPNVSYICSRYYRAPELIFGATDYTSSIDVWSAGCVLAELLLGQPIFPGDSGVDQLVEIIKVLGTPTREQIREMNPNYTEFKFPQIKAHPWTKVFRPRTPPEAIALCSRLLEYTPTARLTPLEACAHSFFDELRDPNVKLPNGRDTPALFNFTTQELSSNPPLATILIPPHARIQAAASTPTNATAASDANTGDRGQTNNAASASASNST

Row | Kd | Compound
1 | > 5 µM (inactive) | Cc1[nH]nc2c1C(c1ccccc1C#N)C1=C(CC(C)(C)CC1=O)N2 (configuration not stated)
2 | inactive | COc1ccccc1C1C2=C(CC(C)(C)CC2=O)Nc2n[nH]c(-c3ccccc3)c21 (configuration not stated)
3 | 0.06 µM | COc1ccccc1C1C2=C(CC(C)(C)CC2=O)Nc2n[nH]c(C)c21 (configuration not stated)
4 | 0.173 µM | COc1ccccc1C1C2=C(CC(C)(C)CC2=O)Nc2[nH]ncc21 (configuration not stated)
5 | 0.585 µM | COc1ccccc1C1C2=C(CC(C)(C)CC2=O)Nc2n[nH]c(C(C)(C)C)c21 (configuration not stated)
6 | 0.223 µM | Cc1ccccc1C1C2=C(CC(C)(C)CC2=O)Nc2n[nH]c(C)c21 (configuration not stated)
7 | > 5 µM (inactive) | CC1(C)CC(=O)C2=C(C1)Nc1n[nH]c(C(F)(F)F)c1C2c1ccccc1F (configuration not stated)
8 | > 5 µM (inactive) | COc1cccc(C2C3=C(CC(C)(C)CC3=O)Nc3n[nH]c(C)c32)c1 (configuration not stated)
9 | > 5 µM (inactive) | COc1ccccc1C1C2=C(CC(C)(C)CC2=O)Nc2ccccc21 (configuration not stated)
10 | 0.102 µM | COc1ccccc1C1C2=C(CC(C)(C)CC2=O)Nc2n[nH]c(C(F)(F)F)c21 (configuration not stated)
11 | inactive | COc1ccccc1C1C2=C(CC(C)(C)CC2=O)Nc2n[nH]c(C(C)C)c21 (configuration not stated)
12 | > 5 µM (inactive) | CCc1[nH]nc2c1C(c1ccccc1OC)C1=C(CC(C)(C)CC1=O)N2 (configuration not stated)
13 | > 5 µM (inactive) | Cc1[nH]nc2c1[C@@H](c1ccccc1C(F)(F)F)C1=C(CC(C)(C)CC1=O)N2
14 | 0.04 µM | Cc1[nH]nc2c1C(c1ccccc1Br)C1=C(CC(C)(C)CC1=O)N2 (configuration not stated)
15 | 0.015 µM | Cc1[nH]nc2c1[C@H](c1ccccc1C(F)(F)F)C1=C(CC(C)(C)CC1=O)N2
16 | inactive | COc1ccccc1[C@H]1C2=C(CC(C)(C)CC2=O)Nc2n[nH]c(C(F)(F)F)c21
17 | 0.031 µM | COc1ccccc1[C@@H]1C2=C(CC(C)(C)CC2=O)Nc2n[nH]c(C(F)(F)F)c21
18 | > 5 µM (inactive) | COc1ccccc1C1C2=C(CC(C)(C)CC2=O)Nc2onc(C)c21 (configuration not stated)
19 | 0.305 µM | COc1ccccc1C1C2=C(CCC(C)(C)C2=O)Nc2n[nH]c(C)c21 (configuration not stated)
20 | 0.89 µM | Cc1[nH]nc2c1C(c1ccccc1Cl)C1=C(CC(C)(C)CC1=O)N2 (configuration not stated)
21 | 0.049 µM | Cc1[nH]nc2c1C(c1ccccc1C(F)(F)F)C1=C(CC(C)(C)CC1=O)N2 (configuration not stated)

Continued, compound first:

Row | Compound | Kd
22 | CC1(C)CC(=O)C2=C(C1)Nc1n[nH]c(C(F)(F)F)c1C2c1ccccc1C(F)(F)F (configuration not stated) | 0.122 µM
23 | Cc1[nH]nc2nc3c(c(-c4ccccc4)c12)C(=O)CC(C)(C)C3 | 0.013 µM
24 | Cc1[nH]nc2c1[C@H](c1cccs1)C1=C(CC(C)(C)CC1=O)N2 | 0.421 µM
25 | Cc1[nH]nc2c1C(c1cccc(F)c1)C1=C(CC(C)(C)CC1=O)N2 (configuration not stated) | inactive
26 | COc1ccccc1/C=C1\C(=O)CC(C)(C)CC1=Nc1cc(C(F)(F)F)[nH]n1 | > 5 µM (inactive)
27 | Cc1[nH]nc2c1C(C)C1=C(CC(C)(C)CC1=O)N2 (configuration not stated) | > 5 µM (inactive)
28 | CC1(C)CC(=O)C2=C(C1)Nc1n[nH]c(C(F)(F)F)c1C2(C)c1ccccc1 (configuration not stated) | > 5 µM (inactive)
29 | COc1ccccc1C1C(C(C)=O)=C(C)Nc2n[nH]c(C)c21 (configuration not stated) | > 5 µM (inactive)
30 | Cc1[nH]nc2c1C(c1cccs1)C1C(=O)CC(C)(C)CC1=N2 (configuration not stated) | 0.42 µM
31 | CC1(C)CC(=O)C2=C(C1)Nc1n[nH]c(C(F)(F)F)c1C2c1cc(F)ccc1F (configuration not stated) | 0.424 µM
32 | Cc1[nH]nc2c1C(c1cccc(C#N)c1)C1=C(CC(C)(C)CC1=O)N2 (configuration not stated) | 0.331 µM
33 | COc1ccccc1C1C2=C(CCCC2=O)Nc2n[nH]c(C)c21 (configuration not stated) | > 5 µM (inactive)
34 | Cc1[nH]nc2c1C(c1cccnc1)C1=C(CC(C)(C)CC1=O)N2 (configuration not stated) | 0.27 µM
35 | Cc1[nH]nc2c1C(c1ccc(Cl)s1)C1=C(CC(C)(C)CC1=O)N2 (configuration not stated) | 0.52 µM
36 | Cc1ccc(C2C3=C(CC(C)(C)CC3=O)Nc3n[nH]c(C)c32)cc1 (configuration not stated) | inactive
37 | Cc1[nH]nc2c1C(c1ccc(C#N)cc1)C1=C(CC(C)(C)CC1=O)N2 (configuration not stated) | inactive
38 | CC1(C)CC(=O)C2=C(C1)Nc1n[nH]c(C(F)(F)F)c1C2c1cccc(F)c1C(F)(F)F (configuration not stated) | 0.822 µM
39 | Cc1[nH]nc2c1C(c1ccsc1)C1=C(CC(C)(C)CC1=O)N2 (configuration not stated) | 0.45 µM
40 | Cc1cccc(C2C3=C(CC(C)(C)CC3=O)Nc3n[nH]c(C)c32)c1 (configuration not stated) | 0.802 µM
41 | COc1ccccc1C1C2=C(CC3(CCCCC3)CC2=O)Nc2n[nH]c(C)c21 (configuration not stated) | > 5 µM (inactive)
42 | Cc1[nH]nc2c1C(C1CCCCC1)C1=C(CC(C)(C)CC1=O)N2 (configuration not stated) | > 5 µM (inactive)
43 | Cc1[nH]nc2c1C(c1ccc(Cl)cc1)C1=C(CC(C)(C)CC1=O)N2 (configuration not stated) | inactive
44 | Cc1[nH]nc2c1C(c1ccc3c(c1)OCO3)C1=C(CC(C)(C)CC1=O)N2 (configuration not stated) | inactive

Row | Compound | Kd
45 | Cc1[nH]nc2nc3c(cc12)C(=O)CC(C)(C)C3 | > 5 µM (inactive)
46 | Cc1[nH]nc2c1C(c1ccccn1)C1=C(CC(C)(C)CC1=O)N2 (configuration not stated) | 0.39 µM
47 | CC1(C)CC(=O)/C(=C\c2cccc(F)c2C(F)(F)F)C(=Nc2cc(C(F)(F)F)[nH]n2)C1 | 0.04 µM
48 | COc1ccc(C2C3=C(CC(C)(C)CC3=O)Nc3n[nH]c(C)c32)cc1 (configuration not stated) | inactive
49 | CC1(C)CC(=O)C2=C(C1)Nc1n[nH]c(C(F)(F)F)c1C2c1cc(F)ccc1C(F)(F)F (configuration not stated) | 0.15 µM
50 | CC1(C)CC(=O)/C(=C\c2ccccc2C(F)(F)F)C(=Nc2cc(C(F)(F)F)[nH]n2)C1 | > 5 µM (inactive)
51 | Cc1[nH]nc2c1C(C1CC1)C1=C(CC(C)(C)CC1=O)N2 (configuration not stated) | > 5 µM (inactive)
52 | Cc1[nH]nc2c1C(c1cccc(C(F)(F)F)c1)C1=C(CC(C)(C)CC1=O)N2 (configuration not stated) | inactive
53 | Cc1[nH]nc2c1C(c1cccc3nonc13)C1=C(CC(C)(C)CC1=O)N2 (configuration not stated) | > 5 µM (inactive)
54 | Cc1[nH]nc2c1C(c1ccc(F)cc1Cl)C1=C(CC(C)(C)CC1=O)N2 (configuration not stated) | > 5 µM (inactive)
55 | Cc1[nH]nc2c1C(c1ccc(Br)cn1)C1=C(CC(C)(C)CC1=O)N2 (configuration not stated) | > 5 µM (inactive)
56 | COc1ccccc1-c1c2c(nc3n[nH]c(C)c13)CCC2=O | > 5 µM (inactive)
57 | Cc1[nH]nc2c1C(c1ccn[nH]1)C1=C(CC(C)(C)CC1=O)N2 (configuration not stated) | > 5 µM (inactive)
58 | Cc1[nH]nc2c1C(c1cccc(Cl)c1)C1=C(CC(C)(C)CC1=O)N2 (configuration not stated) | 0.36 µM
59 | CC1(C)CC(=O)C2=C(C1)Nc1n[nH]c(C(F)(F)F)c1C2c1ccc(F)cc1C(F)(F)F (configuration not stated) | 0.202 µM
60 | Cc1[nH]nc2c1C(c1ccc(C(F)(F)F)cc1)C1=C(CC(C)(C)CC1=O)N2 (configuration not stated) | 0.368 µM
61 | CC1(C)CC(=O)C2=C(C1)Nc1n[nH]c(C(F)(F)F)c1C2c1cc(F)ccc1OC(F)(F)F (configuration not stated) | 0.627 µM
62 | CC1(C)CC(=O)C2=C(C1)Nc1n[nH]c(C(F)(F)F)c1C2c1c(F)cccc1F (configuration not stated) | > 5 µM (inactive)
63 | Cc1[nH]nc2c1[C@@H](c1cccs1)C1=C(CC(C)(C)CC1=O)N2 | > 5 µM (inactive)
64 | Cc1[nH]nc2c1C(c1ccc(F)cc1)C1=C(CC(C)(C)CC1=O)N2 (configuration not stated) | inactive
65 | Cc1[nH]nc2c1C(C)(c1ccccc1)C1=C(CC(C)(C)CC1=O)N2 (configuration not stated) | 0.149 µM
66 | Cc1[nH]nc2nc3c(c(-c4cccs4)c12)C(=O)CC(C)(C)C3 | 0.024 µM
67 | CC1(C)CC(=O)C2=C(C1)Nc1n[nH]c(C(F)(F)F)c1C2c1ccccc1 (configuration not stated) | 0.113 µM
